These results are taken from ChEMBL document CHEMBL6127136, “Discovery of 1-(Phenylsulfonyl)-1,2,3,4-tetrahydroquinoline Derivative as Orally Bioavailable and Safe RORγt Inverse Agonists for Potential Treatment of Rheumatoid Arthritis” (J Med Chem, 2024).

Each structure is given as a SMILES string. Active and inactive are the calls of the source. No cut-off for these calls is given here.

A short description of data set [1]: Toxicity in chicken type II collagen-induced arthritis DBA/1 mouse model assessed as behavioral abnormalities at 20 mg/kg/day, po measured after 42 days. The format is organism-based. The note with it: in vivo, 1008 h, time 42 day.
Data set [2] is described as follows: Toxicity in chicken type II collagen-induced arthritis DBA/1 mouse model assessed as signs of lymphoma at 20 mg/kg/day, po administered for 2 weeks by H and E staining based analysis. In kind it is organism-based. Conditions: in vivo, 336 h.
Data set [3] relates to Mus musculus. As to the kind of experiment: Antiarthritic activity in chicken type II collagen-induced arthritis DBA/1 mouse model assessed as reduction in fore paw thickness at 20 mg/kg/day, po administered for 2 weeks by H and E staining based analysis. In kind it is functional, organism-based.
Data set [4] is described as follows: Toxicity in chicken type II collagen-induced arthritis DBA/1 mouse model assessed as increase in thymic cortex to medulla ratio at 20 mg/kg/day, po administered for 2 weeks by H and E staining based analysis. The format is organism-based. The note with it: in vivo, 336 h.
For data set [5], the system named is Mus musculus. As to the kind of experiment: Antiarthritic activity in chicken type II collagen-induced arthritis DBA/1 mouse model assessed as reduction in hind paw erythema at 20 mg/kg/day, po administered for 2 weeks by H and E staining based analysis. In kind it is functional, organism-based.
In data set [6] the test system is Mus musculus. Nature of the data set: Antiarthritic activity in chicken type II collagen-induced arthritis DBA/1 mouse model assessed as reduction in fore paw erythema at 20 mg/kg/day, po administered for 2 weeks by H and E staining based analysis. In kind it is functional, organism-based.
Data set [7] has as its system Mus musculus. Nature of the data set: Antiarthritic activity in chicken type II collagen-induced arthritis DBA/1 mouse model assessed as reduction in fore paw swelling at 20 mg/kg/day, po administered for 2 weeks by H and E staining based analysis. The format is functional, organism-based.
Data set [8] has as its system Mus musculus. As to the kind of experiment: Antiarthritic activity in chicken type II collagen-induced arthritis DBA/1 mouse model assessed as improvement in arthritic symptoms at 20 mg/kg/day, po administered for 2 weeks by H and E staining based analysis. In kind it is functional, organism-based.
The subject of data set [9] is Mus musculus. As to the kind of experiment: Antiarthritic activity in chicken type II collagen-induced arthritis DBA/1 mouse model assessed as reduction in hind paw thickness at 20 mg/kg/day, po administered for 2 weeks by H and E staining based analysis. In kind it is functional, organism-based.
A short description of data set [10]: Toxicity in chicken type II collagen-induced arthritis DBA/1 mouse model assessed as body weight loss at 20 mg/kg/day, po measured after 42 days. In kind it is organism-based. The note with it: in vivo, 1008 h, time 42 day.
The test system of data set [11] is Mus musculus. Nature of the data set: Antiarthritic activity in chicken type II collagen-induced arthritis DBA/1 mouse model assessed as reduction in clinical score at 20 mg/kg/day, po measured after 42 days. Conditions: time 42.0 day. The format is functional, organism-based.
Data set [12] concerns Mus musculus. As to the kind of experiment: Antiarthritic activity in chicken type II collagen-induced arthritis DBA/1 mouse model assessed as reduction in hind paw swelling at 20 mg/kg/day, po administered for 2 weeks by H and E staining based analysis. The format is functional, organism-based.
Data set [13] in a line: Toxicity in chicken type II collagen-induced arthritis DBA/1 mouse model assessed as morphological changes in thymocytes at 20 mg/kg/day, po administered for 2 weeks by H and E staining based analysis. In kind it is organism-based. The note with it: in vivo, 336 h.
Data set [14] in a line: Toxicity in chicken type II collagen-induced arthritis DBA/1 mouse model assessed as signs of thymic enlargement at 20 mg/kg/day, po administered for 2 weeks by H and E staining based analysis. The format is organism-based. The note with it: in vivo, 336 h.

For the compound `O=C([O-])Cc1ccccc1Nc1c(Cl)cccc1Cl.[Na+]` [DICLOFENAC SODIUM], the Activity entry was “Non-Toxic” in [1]; “Non-Toxic” in [2]; “Toxic” in data set [4]; “Non-Toxic” in data set [10]; “Non-Toxic” in data set [13]; “Non-Toxic” in [14]. For the same compound, the outcome with Mus musculus [3], with Mus musculus [5], in the data set on Mus musculus [6], in the data set on Mus musculus [7], in the data set on Mus musculus [8] and in the data set with Mus musculus [9] was Active. Besides, the result with Mus musculus [11] and with Mus musculus [12] was Active.
